Reference: US20240254119A1 (THIRD HARMONIC BIO, INC., priority 2022, published 2024)

How the values were obtained:
CSF-1R [1] = molecular target: T1, CSF-1R (Homo sapiens, UniProt P07333); test: HTRF biochemical assay, CSF-1R; conditions: Table 4
T1 construct: purchased Invitrogen PV3249 (lot 662393N)
Procedure: (§1) Exemplary compounds were tested for ability to inhibit the phosphorylation of a peptide substrate by the tyrosine kinase wt KIT, PDGFRα, or CSF-1R. Assay procedures and results are described below.
(§2) Enzyme, substrate, and cofactors (ATP and Mn^2+) are combined in a well of a microtiter plate and incubated for 3 hours at 25° C. At the end of the incubation, the reaction is quenched by the addition of an EDTA-containing buffer.
(§3) The substrate used in the CSF-1R and PDGFRα assay is FAM-[…]-CONH2 (FAM is carboxyfluorescein). Peptide should be >95% purity. The substrate for the KIT assay is FAM-[…]-NH2.
(§4) • 1. To a well of a 384-wellplate add 5 μL of 2× enzyme buffer (or control). • 2. Add 100 nL of 100× compound. Enzyme and compound may be pre-incubated at this time if desired. • 3. Add 5 μL of 2× substrate buffer. • 4. Incubate plate at 25° C. for 3 hours. • 5. Add 10 uL of anti-phosphotyrosine antibody buffer. • 6. Read plate in BioTek Synergy Reader. Reaction Conditions for wtKIT Assay

wtKIT [2] = molecular target: T2, wtKIT (Homo sapiens, UniProt P10721); test: HTRF biochemical assay, wtKIT (phosphorylation of a peptide substrate); conditions: Table 4
T2 construct: 1888289AM in the reaction mixtures
T2 sequence (P10721 26-976): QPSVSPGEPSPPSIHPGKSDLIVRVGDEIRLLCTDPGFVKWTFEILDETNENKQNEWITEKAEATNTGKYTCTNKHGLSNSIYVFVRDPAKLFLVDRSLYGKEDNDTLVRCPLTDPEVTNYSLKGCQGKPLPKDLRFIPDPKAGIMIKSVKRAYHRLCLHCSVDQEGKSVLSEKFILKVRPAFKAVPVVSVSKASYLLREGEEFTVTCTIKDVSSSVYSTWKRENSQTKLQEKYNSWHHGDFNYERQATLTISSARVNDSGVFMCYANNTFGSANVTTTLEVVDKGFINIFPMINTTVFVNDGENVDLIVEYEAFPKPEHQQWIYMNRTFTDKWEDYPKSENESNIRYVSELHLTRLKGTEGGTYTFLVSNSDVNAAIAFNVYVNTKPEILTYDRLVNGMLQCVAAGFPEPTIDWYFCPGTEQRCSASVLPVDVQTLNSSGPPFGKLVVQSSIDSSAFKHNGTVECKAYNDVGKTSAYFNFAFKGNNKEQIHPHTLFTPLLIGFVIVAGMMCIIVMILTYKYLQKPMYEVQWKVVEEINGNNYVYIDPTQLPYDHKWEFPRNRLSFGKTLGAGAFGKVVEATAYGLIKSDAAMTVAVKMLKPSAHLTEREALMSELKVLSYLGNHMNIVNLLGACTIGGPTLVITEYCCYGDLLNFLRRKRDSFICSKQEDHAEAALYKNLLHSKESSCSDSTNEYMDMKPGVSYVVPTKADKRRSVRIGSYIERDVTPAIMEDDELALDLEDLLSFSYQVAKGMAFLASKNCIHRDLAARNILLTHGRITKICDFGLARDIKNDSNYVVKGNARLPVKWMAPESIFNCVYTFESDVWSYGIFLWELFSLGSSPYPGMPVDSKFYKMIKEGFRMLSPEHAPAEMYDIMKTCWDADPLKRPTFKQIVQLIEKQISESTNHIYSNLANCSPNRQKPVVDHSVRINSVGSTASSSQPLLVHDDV
Method in brief: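 HTRF read-out of FAM-peptide (1 µM) phosphorylation after anti-phosphotyrosine antibody addition and EDTA quench. Reaction: 5.0 nM wtKIT, 400 µM ATP, 10 mM Mn2+, HEPES pH 7.5, 1% DMSO, 3 h, 25 °C; optional enzyme-compound preincubation; enzyme level set for 10-20% conversion.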

Kinetic solubility assay = assay type: physicochemical; conditions: kinetic solubility, 50 mM PB (pH 7.4), shaken 24 hours at RT
Method in brief: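 Concentration in the filtrate was determined by UPLC-UV or HPLC-UV with a standard curve. Before that, compound (10 mM DMSO stock) in 50 mM PB at pH 7.4 was agitated 24 h at room temperature, then PTFE-filtered with centrifugation.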

PDGFRα [3] = molecular target: T3, PDGFRα (Homo sapiens, UniProt P16234); test: HTRF biochemical assay, PDGFRα; conditions: Table 4, read-out: PDFGRα Biochemical IC50 avg
T3 construct: purchased Millipore 14-467 (lot 26321_ACTI)
T3 sequence (P16234 24-1089): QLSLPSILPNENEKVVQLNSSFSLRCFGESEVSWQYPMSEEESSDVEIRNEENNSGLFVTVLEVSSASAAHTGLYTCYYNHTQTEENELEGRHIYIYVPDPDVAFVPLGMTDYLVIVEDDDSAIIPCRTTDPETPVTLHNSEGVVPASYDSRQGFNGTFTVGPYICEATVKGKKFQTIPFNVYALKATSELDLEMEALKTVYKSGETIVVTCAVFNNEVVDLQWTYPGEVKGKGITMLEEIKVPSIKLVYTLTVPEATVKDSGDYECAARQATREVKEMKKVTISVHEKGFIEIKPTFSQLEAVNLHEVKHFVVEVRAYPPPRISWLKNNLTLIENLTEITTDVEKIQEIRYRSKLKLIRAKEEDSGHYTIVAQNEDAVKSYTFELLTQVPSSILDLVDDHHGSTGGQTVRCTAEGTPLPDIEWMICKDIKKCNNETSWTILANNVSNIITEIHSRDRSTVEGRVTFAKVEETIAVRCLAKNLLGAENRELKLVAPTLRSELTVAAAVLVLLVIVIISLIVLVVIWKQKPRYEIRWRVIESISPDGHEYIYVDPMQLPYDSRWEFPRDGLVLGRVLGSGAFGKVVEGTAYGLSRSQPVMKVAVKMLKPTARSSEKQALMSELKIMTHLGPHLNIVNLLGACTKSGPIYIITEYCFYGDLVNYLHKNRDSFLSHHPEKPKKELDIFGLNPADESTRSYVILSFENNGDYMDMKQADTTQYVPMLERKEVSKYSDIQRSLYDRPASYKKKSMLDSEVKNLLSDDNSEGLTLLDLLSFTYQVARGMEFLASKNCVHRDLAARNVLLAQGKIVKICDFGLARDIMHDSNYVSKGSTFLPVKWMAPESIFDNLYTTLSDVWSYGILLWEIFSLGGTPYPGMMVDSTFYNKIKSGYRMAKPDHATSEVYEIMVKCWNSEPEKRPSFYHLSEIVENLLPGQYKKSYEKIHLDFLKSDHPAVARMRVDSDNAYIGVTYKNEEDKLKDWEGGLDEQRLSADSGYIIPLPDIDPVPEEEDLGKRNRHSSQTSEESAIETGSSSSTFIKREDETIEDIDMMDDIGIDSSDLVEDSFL
Procedure: as §1, §2, §3, §4

[4] = tested on: KIT phosphorylation in M-07e cells; test: Cell-based KIT phosphorylation in M-07e cells by pKIT ELISA; parameters: species or system human; conditions: SCF stimulation
Procedure: Exemplary compounds were tested for ability to inhibit KIT phosphorylation using M-07e cells as monitored by pKIT ELISA. M-07e cells are also represented as M-07E, M-07e, M07-e, M07e, Mo7e, MO7e, M07E and MO7E. Assay procedures and results are described below.
Part I—Procedures for Determining KIT Inhibition inM-07e Cells Using pKTT ELISA Reagents and consumables: • M-07e cells: Initially obtained from Accegen, cat #ABC-TC1313 • p-cKIT Capture ELISA antibody: anti-Human Phospho-CD117/c-kit, R&D cat #DYC3527-5 • Anti-pY-HIRP antibody: R&D cat #DYC3527-5 • 25× wash buffer: Quantikine ELISA Wash Buffer 1, R&D cat #WA126 • PBS: R&D cat #DY006 • 96 well ELISA plates: Clear Polystyrene Microplates, R&D Cat #DY990 • 96 well Tissue culture plates: Corning® 96 Well TC-Treated Microplates, cat #CLS3894 • RPMI medium: ATCC® RPMI-1640 Medium, Cat #30-2001 • FBS: Fetal Bovine Serum, certified, United States Gibco, Thermo-Fisher 16000044 • GM-CSF: Recombinant Human GM-CSF Protein, R&D cat #215-GM • SCF: Recombinant Human SCF Protein, R&D cat #255-SC
• 1. Prepare cells: • a. Culture M-07e cells in RPMI medium+20% serum+GM-CSF+penstrep • To make 50 mL of growth medium • i. 40 mL RPMI media • ii. 10 mL FBS • iii. 10 uL of GM-CSF (100 ug/mL stock) • iv. 0.5 mL pen strep (100×) • b. Harvest cells • c. Re-suspend cells in 100% RPMI media (without serum) to final concentration of 1 million cells/mL • d. Transfer 100 uL of cell solution to 11 columns of a 96 well flat bottom cell culture plate • e. Incubate cells over night at 37 C • 2. Prepare ELISA Plates: • a. Dilute capture antibody to concentration 4 ug/mL in PBS • b. Coat 96 well microplates with 100 uL of capture antibody • c. Seal plates and incubate at RT overnight • d. Wash plates with 300 uL of wash buffer • e. Repeat wash • f. Treat plates with 300 uL of blocking buffer at RT for 1 hour • 3. Addition of compounds: • a. Prepare compound dilutions in RPMI media • i. Top test concentration is 1 uM • ii. Serially dilute compounds 3× for a total of 8 concentrations • b. Add 10 uL of 10× compound dilutions to cells • i. No compounds added in column 11 (for controls) • c. Incubate cells with compounds for 2 hours at 37 C • d. Stimulate cells with SCF for 5 min at concentration of 100 ng/mL (final) • i. In column 11 stimulate top 4 wells. Leave bottom 4 wells unstimulated • e. Remove cell culture media with multichannel pipet • f. Add 110 uL of Lysis buffer to all wells • g. Incubate plates at RT for 30 min while shaking • 4. Transfer 100 uL of cell lysis to each prepared Elisa plate • 5. Add 100 uL of the standard pc-KIT dilutions to the standard wells in column 12 • a. Top concentration=2000 pg/mL • b. 2× dilutions • 6. Incubate ELISA plate with cell lysate for 2 hours at RT • 7. Wash Plate with wash buffer (wash 1) • 8. Repeat wash (wash 2) • 9. […] Add 100 uL of diluted anti-pY-HRP (1/1000 dilution in detection antibody dilution buffer) and incubate 2 hours at RT • 11. Wash plate with wash buffer (wash 1) • 12. Repeat wash (wash 2) • 13. Repeat wash (wash 3) • 14. Add 100 uL of substrate solution to each well • 15. Incubate plates 20 min • Note: Plate development is indicated by aqua color • 16. Add 50 uL of stop solution to each well • 17. Determine optical density on Bitek Synergy Neo2: • a. Make new experiment
Select absorbance 1 set to 450 nm

wtKIT [5] = molecular target: T2, wtKIT; test: Caliper biochemical assay, wtKIT; conditions: Table 6, read-out: KIT Biochemical IC50 avg
Method in brief: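 Mobility-shift read-out: after EDTA stop, fluorescent peptide substrate and product resolved electrophoretically on LabChip 3000. Reaction ran 3 h at 25° C with 400 μM ATP, Mn^2+ cofactor, 5.0 nM wtKIT, 1 μM FAM-peptide, pH 7.5 HEPES buffer; no-enzyme wells defined full inhibition.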

PDGFRα [6] = molecular target: T3, PDGFRα; test: Caliper biochemical assay, PDGFRα; conditions: Table 6
Method in brief: (§5)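 Mobility-shift readout: after EDTA quench, fluorescent peptide and product are resolved electrophoretically on a LabChip and measured by fluorescence. Reactions contain enzyme, carboxyfluorescein peptide, ATP, Mn^2+ and compound, run 3 h at 25° C; 100% inhibition control lacks enzyme.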

CSF-1R [7] = molecular target: T1, CSF-1R; test: Caliper biochemical assay, CSF-1R; conditions: Table 6
Method in brief: as §5

[8] = molecular target: T4, BCRP (BCRP-MDCKII monolayer) (Homo sapiens, UniProt Q9UNQ0); test: MDCKII-BCRP bidirectional transport assay; assay type: in vitro ADME
T4 construct: host or cells: MDCKII (canine kidney) cells
T4 sequence (Q9UNQ0 1-655): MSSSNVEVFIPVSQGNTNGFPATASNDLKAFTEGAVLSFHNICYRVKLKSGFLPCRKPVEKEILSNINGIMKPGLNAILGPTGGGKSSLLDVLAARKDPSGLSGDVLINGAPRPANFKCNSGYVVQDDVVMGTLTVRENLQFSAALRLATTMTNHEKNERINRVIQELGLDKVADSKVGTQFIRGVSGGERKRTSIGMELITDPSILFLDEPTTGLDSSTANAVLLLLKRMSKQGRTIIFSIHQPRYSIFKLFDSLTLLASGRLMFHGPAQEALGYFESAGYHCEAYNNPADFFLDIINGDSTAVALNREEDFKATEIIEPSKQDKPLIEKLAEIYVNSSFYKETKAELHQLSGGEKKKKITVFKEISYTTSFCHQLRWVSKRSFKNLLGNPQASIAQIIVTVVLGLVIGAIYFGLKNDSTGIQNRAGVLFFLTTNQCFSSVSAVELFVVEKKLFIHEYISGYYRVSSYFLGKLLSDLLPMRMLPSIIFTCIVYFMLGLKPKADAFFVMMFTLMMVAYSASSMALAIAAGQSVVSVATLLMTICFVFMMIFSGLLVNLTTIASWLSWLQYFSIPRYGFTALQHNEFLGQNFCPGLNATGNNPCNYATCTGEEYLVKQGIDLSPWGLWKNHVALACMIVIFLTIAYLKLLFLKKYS
Method in brief: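 Efflux ratios were derived from Papp values, alongside recovery, with compounds quantified by LC-MS/MS. Both directions were tested in duplicate across BCRP-MDCKII monolayers used on days 12–15. Incubation ran 120 min at 37° C, 5% CO2, after a 15 min preincubation in assay buffer.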

T1 sequence (P07333 20-972): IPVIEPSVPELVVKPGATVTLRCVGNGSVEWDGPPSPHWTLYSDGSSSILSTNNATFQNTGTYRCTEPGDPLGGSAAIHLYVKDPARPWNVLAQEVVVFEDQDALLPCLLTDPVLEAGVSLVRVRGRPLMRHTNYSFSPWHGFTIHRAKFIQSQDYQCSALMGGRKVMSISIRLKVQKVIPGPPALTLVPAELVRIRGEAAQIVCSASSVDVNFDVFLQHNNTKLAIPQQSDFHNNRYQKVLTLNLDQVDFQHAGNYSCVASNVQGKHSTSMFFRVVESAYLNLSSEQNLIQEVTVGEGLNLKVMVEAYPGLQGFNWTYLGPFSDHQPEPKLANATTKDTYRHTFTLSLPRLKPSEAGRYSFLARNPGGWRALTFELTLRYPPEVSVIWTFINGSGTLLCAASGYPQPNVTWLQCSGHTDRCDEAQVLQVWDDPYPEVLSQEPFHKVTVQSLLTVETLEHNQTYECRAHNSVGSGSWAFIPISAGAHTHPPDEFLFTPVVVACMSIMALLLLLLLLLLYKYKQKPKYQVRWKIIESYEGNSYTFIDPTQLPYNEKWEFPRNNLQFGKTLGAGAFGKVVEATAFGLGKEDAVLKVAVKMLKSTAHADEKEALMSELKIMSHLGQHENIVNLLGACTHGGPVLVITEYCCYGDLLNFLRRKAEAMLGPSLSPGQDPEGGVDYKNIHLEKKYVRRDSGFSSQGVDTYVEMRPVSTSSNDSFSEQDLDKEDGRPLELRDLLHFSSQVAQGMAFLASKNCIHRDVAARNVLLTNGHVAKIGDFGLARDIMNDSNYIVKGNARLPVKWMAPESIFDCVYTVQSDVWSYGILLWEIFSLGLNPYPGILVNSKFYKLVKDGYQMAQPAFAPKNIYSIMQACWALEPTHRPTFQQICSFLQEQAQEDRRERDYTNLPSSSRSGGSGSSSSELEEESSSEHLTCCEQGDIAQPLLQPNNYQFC

Cc1ccc(-c2noc(C3CC3F)n2)cc1NC(=O)c1cnc2cc(COC3CC(O)C3)ccn12 (centres unmarked) [Compound I-85]
IC50 (CSF-1R [1]): ≤ 50 nM | IC50 (wtKIT [2]): ≤ 50 nM | Solubility (μM) (Kinetic solubility assay): **** (a solubility less than or equal to 2 μM) | IC50 (PDGFRα [3]): 500 to 5000 nM | IC50 [4]: ≤ 50 nM

Cc1ccc(-c2noc([C@H]3C[C@@H]3F)n2)cc1NC(=O)c1cnn2cc(F)ccc12 [Compound I-101]
IC50 (CSF-1R [1]): 50 to 500 nM | IC50 (wtKIT [2]): ≤ 50 nM | Solubility (μM) (Kinetic solubility assay): **** (a solubility less than or equal to 2 μM) | IC50 (PDGFRα [3]): 5000 to 30000 nM | IC50 [4]: 50 to 500 nM

Cc1ccc(-c2noc(CC(O)C(F)F)n2)cc1NC(=O)c1cnn2ccccc12 (single isomer, unassigned) [Compound I-75]
IC50 (CSF-1R [1]): 50 to 500 nM | IC50 (wtKIT [2]): ≤ 50 nM | Solubility (μM) (Kinetic solubility assay): **** (a solubility less than or equal to 2 μM) | IC50 (PDGFRα [3]): 500 to 5000 nM | IC50 [4]: ≤ 50 nM

COCc1ccn2c(C(=O)Nc3cc(-c4noc(C)n4)ccc3C)cnc2c1 [Compound I-132]
IC50 (CSF-1R [1]): 5000 to 30000 nM | IC50 (wtKIT [5]): ≤ 50 nM | IC50 (PDGFRα [6]): 500 to 5000 nM | IC50 (wtKIT [2]): ≤ 50 nM | Solubility (μM) (Kinetic solubility assay): **** (a solubility less than or equal to 2 μM) | IC50 (CSF-1R [7]): 500 to 5000 nM | IC50 (PDGFRα [3]): 500 to 5000 nM

COc1ccc2ncc(C(=O)Nc3cc(-c4noc(C[C@H](C)O)n4)ccc3C)n2c1 [Compound I-89]
IC50 (CSF-1R [1]): 50 to 500 nM | IC50 (wtKIT [2]): ≤ 50 nM | IC50 (PDGFRα [3]): 500 to 5000 nM | IC50 [4]: ≤ 50 nM

Cc1ccc(-c2noc([C@@H]3CCCO3)n2)cc1NC(=O)c1cnc2ccccn12 [Compound I-396]
IC50 (CSF-1R [1]): 50 to 500 nM | IC50 (wtKIT [5]): ≤ 50 nM | IC50 (PDGFRα [6]): 500 to 5000 nM | IC50 (wtKIT [2]): ≤ 50 nM | Solubility (μM) (Kinetic solubility assay): **** (a solubility less than or equal to 2 μM) | IC50 (CSF-1R [7]): 50 to 500 nM | IC50 (PDGFRα [3]): 500 to 5000 nM | MDCK-BCRP: Efflux Ratio [8]: 2.86 | MDCK-BCRP: Papp A-B ([8]; apical to basolateral): 8.25 10^−6 cm/s

Cc1cc(C)c(-c2noc(C3CC3(F)F)n2)cc1NC(=O)c1cnc2ccccn12 (racemic) [Compound I-129]
IC50 (CSF-1R [1]): ≤ 50 nM | IC50 (wtKIT [5]): ≤ 50 nM | IC50 (PDGFRα [6]): 500 to 5000 nM | IC50 (wtKIT [2]): ≤ 50 nM | Solubility (μM) (Kinetic solubility assay): **** (a solubility less than or equal to 2 μM) | IC50 (CSF-1R [7]): ≤ 50 nM | IC50 (PDGFRα [3]): 500 to 5000 nM

COCCS(=O)(=O)N1CC[C@H]1c1nc(-c2ccc(C)c(NC(=O)c3cnc4ccccn34)c2)no1 [Compound I-189]
IC50 (CSF-1R [1]): 500 to 5000 nM | IC50 (wtKIT [5]): 50 to 500 nM | IC50 (PDGFRα [6]): 500 to 5000 nM | IC50 (wtKIT [2]): ≤ 50 nM | Solubility (μM) (Kinetic solubility assay): ** (a solubility greater than 10 μM and less than or equal to 50 μM) | IC50 (CSF-1R [7]): 50 to 500 nM | IC50 (PDGFRα [3]): 500 to 5000 nM

Cc1ccc(-c2noc([C@H]3CC(F)(F)CN3)n2)cc1NC(=O)c1cnn2ccccc12 [Compound I-243]
IC50 (CSF-1R [1]): 50 to 500 nM | IC50 (wtKIT [5]): ≤ 50 nM | IC50 (PDGFRα [6]): 50 to 500 nM | IC50 (wtKIT [2]): ≤ 50 nM | Solubility (μM) (Kinetic solubility assay): * (a solubility greater than 50 μM) | IC50 (CSF-1R [7]): 50 to 500 nM | IC50 (PDGFRα [3]): 50 to 500 nM

Cc1ccc(-c2noc(C3CC(O)C3)n2)cc1NC(=O)c1cnn2cc(-c3ccn(C)n3)ccc12 (centres unmarked) [Compound I-652]
IC50 (CSF-1R [1]): ≤ 50 nM | IC50 (wtKIT [2]): ≤ 50 nM | IC50 (PDGFRα [3]): 50 to 500 nM
